Experiments:
plasma creatinine = assay: Rat high-fat diet study: plasma creatinine; format: in vivo, Sprague Dawley male rats; settings: HFD rats, once daily oral gavage in weeks four and five, fold change relative to group 3 (HFD reference), * = P < 0.05
Description: (§1) The Ethics Committee of Atatürk University approved all experimental protocols about animal care, handling and experimentation. All experiments were performed in accordance with relevant guidelines and regulations. 44 Sprague Dawley male rats (10-12 weeks old) weighing 375-415 g were obtained from Atatürk University Experimental Research Center (ATADEM) and housed at 22±2° C. with 50±5% humidity on a 12 hr light/dark cycle.
(§2) Chow diet (CD) and a high-fat diet (HFD) were used to fed the animals in this study. The CD was composed of wheat, wheat bran, rice polishing and fish meal, with approximately 25% proteins, 60% carbohydrates and 15% fat in terms of the caloric content. On the other hand, HFD was composed of normal food, beef tallow, sugar and condensed milk and contained approximately 14% proteins, 37% carbohydrates and 49% fat in terms of the caloric content.
(§3) Following 1-week habituation, the rats were separated into two groups: a control group (Group 1, n=4), which was fed with a regular CD; and the HFD group (n=40), which was fed with HFD. After three weeks, four rats in the HFD group (Group 2) were randomly sacrificed and the remaining 36 rats in the HFD group were randomly divided into nine sub-groups (Groups 3-11, four rats in each subgroup).
(§4) Groups 3-11 received the following treatments during weeks four and five: • Group 3 received only the HFD (reference) • Group 4 received the HFD and Serine (1000 mg/kg once daily by oral gavage) • Group 5 received the HFD and NAC (300 mg/kg once daily by oral gavage) • Group 6 received the HFD and L-Carnitine tartrate (LCAT) (100 mg/kg once daily by oral gavage) • Group 7 received the HFD and Nicotinamide riboside chloride (NRCl) (120 mg/kg once daily by oral gavage) • Group 8 received the HFD and Nicotinamide (NA) (120 mg/kg once daily by oral gavage) • Group 9 received the HFD, Serine (1000 mg/kg once daily by oral gavage), NAC (300 mg/kg once daily by oral gavage) and LCAT (100 mg/kg once daily by oral gavage) • Group 10 received the HFD, Serine (1000 mg/kg once daily by oral gavage), NAC (300 mg/kg once daily by oral gavage), LCAT (100 mg/kg/day) and NRCl (120 mg/kg once daily by oral gavage) • Group 11 received the HFD, Serine (1000 mg/kg once daily by oral gavage), NAC (300 mg/kg once daily by oral gavage), LCAT (100 mg/kg once daily by oral gavage) and NA (120 mg/kg once daily by oral gavage)
(§5) The body weight and food intake of the rats was recorded each week. After week five, all animals of groups 3-11 were anesthetized with isoflurane and sacrificed. Blood samples were collected from the abdominal aorta and centrifuged at 8000 rpm for 15 min at 4° C. The plasma was separated and stored at −80° C. until further analysis.
(§6) Plasma samples were thawed and analyzed for creatinine and uric acid.

plasma uric acid = assay: Rat high-fat diet study: plasma uric acid; format: in vivo, Sprague Dawley male rats; settings: HFD rats, once daily oral gavage in weeks four and five, fold change relative to group 3 (HFD reference), * = P < 0.05
Description: as §1, §2, §3, §4, §5, §6

| SMILES | Creatinine Fold change (plasma creatinine) | Uric Acid Fold change (plasma uric acid) |
| --- | --- | --- |
| CC(=O)N[C@@H](CS)C(=O)O [NAC, N-acetyl cysteine] | 0.85 | 0.76 |
| N[C@@H](CO)C(=O)O [Serine] | 0.84* | 0.72* |
| C[N+](C)(C)C[C@H](O)CC(=O)[O-].O=C(O)C(O)C(O)C(=O)O [LCAT, L-Carnitine tartrate] | 0.89 | 0.62* |
| NC(=O)c1cccnc1 [NA, Nicotinamide] | 0.96 | 0.53* |
| NC(=O)c1ccc[n+]([C@@H]2O[C@H](CO)[C@@H](O)[C@H]2O)c1.[Cl-] [NRCl, Nicotinamide riboside chloride] | 0.83* | 0.64* |

Reference: patent publication US20240000737A1, “SUBSTANCES FOR TREATMENT OF HYPERURICAEMIA” (SCANDIBIO THERAPEUTICS AB, priority 2020, published 2024)
